From PMC4685510, “A Cell Biologist’s Field Guide to Aurora Kinase Inhibitors” (Frontiers in Oncology, 2015)
Read-outs that look alike come from different tables or passages of the source.

Columns and labels:
Experiment in all cases: biochemical
Assay type in all cases: biochemical
[1] = biological target: 363 human kinases (including Aurora A/B/C) (Homo sapiens, UniProt Q00535); conditions: for remaining activity at 0.1 µM: 100 nM; for remaining activity at 0.1 µM / remaining activity at 0.5 µM: read-out: % Enzyme Activity (relative to DMSO controls); for remaining activity at 0.5 µM / % Enzyme Activity (relative to DMSO controls): 500 nM
Text: (§1) However, the Aurora A/B selectivity ratios derived from our in vitro and in vivo data can be compared to prioritize inhibitors.

[2] = biological target: T1, 363 human kinases (including Aurora A/B/C) (Homo sapiens, UniProt Q13237); conditions: PKG2/PRKG2; for remaining activity at 0.1 µM: 100 nM; for remaining activity at 0.1 µM / remaining activity at 0.5 µM: read-out: % Enzyme Activity (relative to DMSO controls)
T1 sequence (Q13237 1-762): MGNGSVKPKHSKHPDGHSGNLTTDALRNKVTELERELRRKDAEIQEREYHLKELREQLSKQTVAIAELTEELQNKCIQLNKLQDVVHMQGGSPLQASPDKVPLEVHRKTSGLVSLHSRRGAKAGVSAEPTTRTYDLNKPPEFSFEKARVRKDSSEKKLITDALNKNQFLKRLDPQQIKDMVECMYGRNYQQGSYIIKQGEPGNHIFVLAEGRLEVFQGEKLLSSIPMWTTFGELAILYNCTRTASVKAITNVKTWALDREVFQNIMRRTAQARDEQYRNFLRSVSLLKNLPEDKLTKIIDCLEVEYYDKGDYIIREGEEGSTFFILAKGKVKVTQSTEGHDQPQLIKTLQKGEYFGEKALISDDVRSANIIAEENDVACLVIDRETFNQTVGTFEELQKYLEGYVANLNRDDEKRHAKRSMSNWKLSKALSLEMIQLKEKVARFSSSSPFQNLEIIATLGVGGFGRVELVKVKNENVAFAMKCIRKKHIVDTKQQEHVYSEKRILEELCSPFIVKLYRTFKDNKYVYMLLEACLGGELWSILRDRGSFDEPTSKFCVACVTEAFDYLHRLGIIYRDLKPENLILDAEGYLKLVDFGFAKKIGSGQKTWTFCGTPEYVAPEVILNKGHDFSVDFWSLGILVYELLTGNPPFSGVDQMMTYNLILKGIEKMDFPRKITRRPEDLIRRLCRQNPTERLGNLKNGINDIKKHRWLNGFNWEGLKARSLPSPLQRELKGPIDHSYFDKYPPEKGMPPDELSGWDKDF
Text: as §1

[3] = biological target: T2, 363 human kinases (including Aurora A/B/C) (Homo sapiens, UniProt Q6P3R8); conditions: NEK5; for remaining activity at 0.1 µM: 100 nM; for remaining activity at 0.1 µM / remaining activity at 0.5 µM: read-out: % Enzyme Activity (relative to DMSO controls)
T2 sequence (Q6P3R8 1-708): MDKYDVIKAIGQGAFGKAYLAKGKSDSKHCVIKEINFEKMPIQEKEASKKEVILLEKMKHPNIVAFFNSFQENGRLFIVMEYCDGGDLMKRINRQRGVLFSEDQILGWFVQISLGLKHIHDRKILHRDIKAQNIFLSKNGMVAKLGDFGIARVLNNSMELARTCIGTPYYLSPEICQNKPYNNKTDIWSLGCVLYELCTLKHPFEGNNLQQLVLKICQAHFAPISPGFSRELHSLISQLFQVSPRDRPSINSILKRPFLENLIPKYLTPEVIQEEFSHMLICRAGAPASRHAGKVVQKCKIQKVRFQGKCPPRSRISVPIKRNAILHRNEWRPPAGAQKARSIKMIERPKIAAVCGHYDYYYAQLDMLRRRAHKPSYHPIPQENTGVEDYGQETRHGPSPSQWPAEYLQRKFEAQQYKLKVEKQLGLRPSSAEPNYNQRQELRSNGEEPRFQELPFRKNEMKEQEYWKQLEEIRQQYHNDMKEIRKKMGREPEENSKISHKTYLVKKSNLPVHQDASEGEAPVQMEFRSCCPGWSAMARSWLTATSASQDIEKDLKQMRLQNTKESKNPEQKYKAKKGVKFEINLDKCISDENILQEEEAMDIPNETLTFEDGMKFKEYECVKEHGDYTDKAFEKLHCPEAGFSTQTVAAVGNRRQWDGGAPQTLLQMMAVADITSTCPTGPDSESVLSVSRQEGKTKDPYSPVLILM
Text: as §1

[4] = biological target: T3, 363 human kinases (including Aurora A/B/C) (Homo sapiens, UniProt Q8NG66); conditions: NEK11; for remaining activity at 0.1 µM: 100 nM; for remaining activity at 0.1 µM / remaining activity at 0.5 µM: read-out: % Enzyme Activity (relative to DMSO controls)
T3 sequence (Q8NG66 1-645): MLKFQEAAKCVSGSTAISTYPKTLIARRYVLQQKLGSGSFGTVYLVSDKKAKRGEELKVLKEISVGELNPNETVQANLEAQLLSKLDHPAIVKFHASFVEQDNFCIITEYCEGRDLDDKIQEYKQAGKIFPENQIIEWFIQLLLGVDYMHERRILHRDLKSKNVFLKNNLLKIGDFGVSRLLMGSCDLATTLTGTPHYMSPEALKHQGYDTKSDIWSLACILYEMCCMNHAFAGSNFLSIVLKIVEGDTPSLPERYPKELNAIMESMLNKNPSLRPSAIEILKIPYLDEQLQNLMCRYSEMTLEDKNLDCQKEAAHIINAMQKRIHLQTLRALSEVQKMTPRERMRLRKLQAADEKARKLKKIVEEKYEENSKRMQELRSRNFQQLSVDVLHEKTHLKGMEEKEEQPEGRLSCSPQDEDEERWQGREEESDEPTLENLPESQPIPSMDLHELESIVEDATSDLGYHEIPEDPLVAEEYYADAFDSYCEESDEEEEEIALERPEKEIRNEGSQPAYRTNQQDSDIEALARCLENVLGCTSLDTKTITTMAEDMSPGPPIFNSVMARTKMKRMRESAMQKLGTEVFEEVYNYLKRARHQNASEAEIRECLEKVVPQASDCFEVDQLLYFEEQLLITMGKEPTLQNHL
Text: as §1

Chain of 363 human kinases (including Aurora A/B/C) (Homo sapiens, UniProt Q00535) (Q00535 whole entry): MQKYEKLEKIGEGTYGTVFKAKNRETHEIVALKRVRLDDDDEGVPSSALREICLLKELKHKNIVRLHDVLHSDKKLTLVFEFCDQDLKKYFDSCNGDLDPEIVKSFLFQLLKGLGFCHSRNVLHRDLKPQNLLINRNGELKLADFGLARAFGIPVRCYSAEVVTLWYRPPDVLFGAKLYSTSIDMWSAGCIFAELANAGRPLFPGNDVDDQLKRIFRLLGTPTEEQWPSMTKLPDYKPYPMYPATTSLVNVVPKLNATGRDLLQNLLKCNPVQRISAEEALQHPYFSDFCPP

| SMILES | remaining activity at 0.1 µM ([1]; CDK5/p25, [ATP] 50 µM) | remaining activity at 0.1 µM ([1]; CDK5/p35, [ATP] 100 µM) | remaining activity at 0.1 µM [2] | remaining activity at 0.1 µM [3] | remaining activity at 0.1 µM [4] | remaining activity at 0.5 µM ([1]; CDK5/p25, [ATP] 50 µM) | remaining activity at 0.5 µM ([1]; CDK5/p35, [ATP] 100 µM) | remaining activity at 0.5 µM ([2]; 500 nM) | remaining activity at 0.5 µM ([3]; 500 nM) | remaining activity at 0.5 µM ([4]; 500 nM) | % Enzyme Activity (relative to DMSO controls) ([1]; CDK5/p25, [ATP] 50 µM) | % Enzyme Activity (relative to DMSO controls) ([1]; CDK5/p35, [ATP] 100 µM) | % Enzyme Activity (relative to DMSO controls) ([2]; 500 nM) | % Enzyme Activity (relative to DMSO controls) ([3]; 500 nM) | % Enzyme Activity (relative to DMSO controls) ([4]; 500 nM) |
| --- | --- | --- | --- | --- | --- | --- | --- | --- | --- | --- | --- | --- | --- | --- | --- |
| CCn1cc(-c2ccnc3[nH]c(-c4cccc(CN(C)C)c4)cc23)c(-c2ccc(NC(=O)N(C)C)cc2)n1 [GSK1070916] | 91.8% | 111% | 97.2% | 59.1% | 77.7% | – | – | – | – | – | – | – | – | – | – |
| O=C(O)[C@]1(Cc2cccc(Nc3nccs3)n2)CC[C@@H](Oc2cccc(Cl)c2F)CC1 [MK-5108] | 95.8% | 95.7% | 106% | 153% | 86.5% | 75.3% | 90% | 97.3% | 104% | 73.9% | – | – | – | – | – |
| O=C(c1cccc(Cl)c1F)N1CCN(Cc2cccc(Nc3nccs3)n2)CC1 [MK-8745] | – | – | – | – | – | 88.5% | 94.6% | 95.3% | 130% | 76.6% | 87.84% | 93.11% | 95.25% | 128.29% | 75.49% |
